Results published in ChEMBL document CHEMBL5727360, “BCL-2 inhibitors” (2019).

The molecules below were run against Apoptosis regulator Bcl-2 (Homo sapiens, UniProt P10415) (assay: Bcl-2 Competition Binding (Fluorescence Polarization) Assay: The fluorescence-labeled 23 amino acid peptide BH3 was purchased from CalBiochem ([…], SEQ ID NO: 1). An unbound Fluorescein labeled BH3 peptide emits random light with respect to the plane of polarization plane of excited light, resulting in a lower polarization degree (mP) value. When the peptide is bound to Bcl-2, the complex tumble slower and the emitted light can have a higher level of polarization, resulting in a higher mP value. This binding assay was performed in 96-well plate and with each assay contained 15 and 30 nM of labeled peptide and purified Bcl-2 protein (purchased from R&D Systems, Inc). The assay buffer contained 20 mM Hepes (pH 7.0), 50 mM KCl, 5 mM MgCl2, 20 mM Na2MoO4, 0.1 mg/ml Bovine Gamma Globulin and 0.01% NP40. Compounds were diluted in DMSO and added to the final assay with concentration range from 20 uM to 2 nM. The polarization degree (mP) value was determined by BioTek Synergy II with background subtraction after 3 hours of incubation at room temperature. IC50 was calculated using Prism software with sigmoidal dose-response curve fitting. ABT-737 was used as reference compound. Such assays, carried out with a range of doses of test compounds, allow the determination of an approximate IC50 value.).
Chain of Apoptosis regulator Bcl-2 (P10415 whole entry): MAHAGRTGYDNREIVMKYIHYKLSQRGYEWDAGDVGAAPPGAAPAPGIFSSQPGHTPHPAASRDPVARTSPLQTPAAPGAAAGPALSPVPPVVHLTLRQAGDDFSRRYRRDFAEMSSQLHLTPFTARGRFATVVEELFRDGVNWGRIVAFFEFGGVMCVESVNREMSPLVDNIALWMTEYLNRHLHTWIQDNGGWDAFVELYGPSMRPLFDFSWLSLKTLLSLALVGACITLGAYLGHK

`CN1CCC(F)(COc2ccc(S(=O)(=O)NC(=O)c3ccc(N4CCN(CC5=C(c6ccc(Cl)cc6)CC(C)(C)CC5)CC4)cc3-n3ncc4nc5[nH]ccc5cc43)cc2[N+](=O)[O-])CC1` was tested. Which IC50 did it give?
Its IC50 is < 0.01 µM.

Which IC50 does the source give for `CC1(C)CCC(CN2CCN(c3ccc(C(=O)NS(=O)(=O)c4ccc(NC5CCN(C6CCOCC6)CC5)c([N+](=O)[O-])c4)c(-n4ncc5nc6[nH]ccc6cc54)c3)CC2)=C(c2ccc(Cl)cc2)C1` here?
Its IC50 is < 0.01 µM.

`CC1(C)CCC(CN2CCN(c3ccc(C(=O)NS(=O)(=O)c4ccc(NCCCN5CCOCC5)c([N+](=O)[O-])c4)c(-n4ncc5nc6[nH]ccc6cc54)c3)CC2)=C(c2ccc(Cl)cc2)C1` was tested. Which IC50 did it give?
The IC50 was < 0.01 µM.
